From patent US20260217692A1 (Ascentage Pharma (Suzhou) Co., Ltd., priority 2023, published 2026) come the findings set out here.

Where a name gives a salt, the structure may show the parent alone.

What all share (assay type): physicochemical
The nature of data set [1]: Stability of crystal forms under stability test conditions (appearance, XRPD, HPLC). The note with it: for Total impurities: HPLC. On the procedure:
The samples were placed under the stability conditions shown in the following table, sampling was performed at the corresponding time points, and the samples were subjected to appearance and XRPD tests. […] The stability results obtained are recorded in the following table. […] The samples were placed under the stability test conditions shown in the following table, sampling was performed at different time points, and the samples were subjected to the XRPD test. […] The samples were placed in an open state under the stability test conditions of 40° C./75% RH and 90% RH; and the samples were placed in a closed state at 60° C. in a light box (the test samples in the dark were placed in the same manner as the illumination test samples, and the treatment was performed in the dark). Sampling was performed at different time points, and the samples were subjected to the XRPD test. […] The samples were placed under the stability conditions shown in the following table, sampling was performed at the corresponding time points, and the samples were subjected to appearance and XRPD tests. […] The stability results obtained are recorded in the following table.

A short description of data set [2]: Polymorph screening test, suspension method (crystal form by XRPD after stirring in solvent). Particulars: for Crystal form (XRPD): free base screening, 3 days. On the procedure: (or 50° C.) for 3 days in the dark and centrifuged to remove the supernatant; the resulting precipitate was dried under vacuum (25° C., −0.1 MPa); and the resulting solid was collected and subjected to the XRPD test. The results are as follows:
(or 50° C./80° C.) for 3 days in the dark and centrifuged to remove the supernatant; and the resulting precipitate was dried under vacuum (25° C., −0.1 MPa).
(or 50° C.) for 3 days in the dark and centrifuged to remove the supernatant; and the resulting precipitate was dried under vacuum (25° C., −0.1 MPa).

The nature of data set [3]: Dynamic vapor sorption (DVS) hygroscopicity test. The note with it: 25° C. and 80% RH. From the text:
In the present disclosure, the DVS test parameters are set as follows: [table]

Where [4] appears, read: 0 d, listed as Phosphate crystal form E.

For `Cc1cc(Nc2ncc(Cl)c(Nc3ccccc3S(=O)(=O)C(C)C)n2)c(OC(C)C)cc1C1=CCN(C2CCOCC2)CC1` [listing 1 of 3 here], the Total impurities is recorded as 1.24% in data set [1] (setting [4]); 1.69% in data set [1] (40° C./75% RH, 1 M, listed as Phosphate crystal form E); 1.79% in data set [1] (40° C./75% RH, 10 d, listed as Phosphate crystal form E); 2.74% in data set [1] (60° C., 1 M, listed as Phosphate crystal form E); 3.26% in data set [1] (60° C., 10 d, listed as Phosphate crystal form E); 3.03% in data set [1] (90% RH, 1 M, listed as Phosphate crystal form E). For the same compound, the Total impurities in data set [1] (90% RH, 10 d, listed as Phosphate crystal form E) was determined as 2.13%; in data set [1] (Illumination, 5 d, listed as Phosphate crystal form E), 3.02%; in data set [1] (Illumination, 10 d, listed as Phosphate crystal form E) it was 5.00%. The “Crystal form (XRPD)” value was “Significant change” in data set [1] (setting [4]); “Significant change” in data set [1] (40° C./75% RH, 10 d and 1 M, listed as Phosphate crystal form E); “Significant change” in data set [1] (60° C., 10 d and 1 M, listed as Phosphate crystal form E); “Significant change” in data set [1] (90% RH, 10 d and 1 M, listed as Phosphate crystal form E); “Significant change” in data set [1] (Illumination, 5 d and 10 d, listed as Phosphate crystal form E).

Regarding `Cc1cc(Nc2ncc(Cl)c(Nc3ccccc3S(=O)(=O)C(C)C)n2)c(OC(C)C)cc1C1=CCN(C2CCOCC2)CC1` [listing 2 of 3 here], the “Crystal form (XRPD)” value is “Crystal form G” in data set [2] (suspension in 1,4-Dioxane, 25° C.); “Crystal form D” in data set [2] (suspension in 1,4-Dioxane, 50° C.); “Crystal form D” in data set [2] (suspension in 2-MeTHF, 25° C.); “Crystal form D” in data set [2] (suspension in 2-MeTHF, 50° C.); “Crystal form D” in data set [2] (suspension in ACN/water (1/1, v/v), 25° C.); “Crystal form D” in data set [2] (suspension in ACN/water (1/1, v/v), 50° C.). Also, the “Crystal form (XRPD)” value in data set [2] (suspension in Acetone, 25° C.) is given as “Crystal form E”; in data set [2] (suspension in Acetone, 50° C.) it was “Crystal form E”; in data set [2] (suspension in Acetone/water (1:1, v/v), 25° C.), “Crystal form D”; in data set [2] (suspension in Acetone/water (1:1, v/v), 50° C.) it was “Crystal form D”; in data set [2] (suspension in Acetonitrile, 25° C.), “Crystal form D”; in data set [2] (suspension in Acetonitrile, 50° C.), “Crystal form D”. Further, the “Crystal form (XRPD)” value is listed as “Crystal form D” in data set [2] (suspension in Cyclohexane, 25° C.); “Crystal form D” in data set [2] (suspension in Cyclohexane, 50° C.); “No solid sample was obtained” in data set [2] (suspension in Dichloromethane, 25° C.); “No solid sample was obtained” in data set [2] (suspension in Dichloromethane, 50° C.); “Crystal form B” in data set [2] (suspension in Ethanol, 25° C.); “Crystal form D” in data set [2] (suspension in Ethanol, 50° C.). In addition, the “Crystal form (XRPD)” value in data set [2] (suspension in Ethyl acetate, 25° C.) was “Crystal form D”; in data set [2] (suspension in Ethyl acetate, 50° C.) it was “Crystal form D”; in data set [2] (suspension in Isopropanol, 25° C.) it was “Crystal form C”; in data set [2] (suspension in Isopropanol, 50° C.), “Crystal form D”; in data set [2] (suspension in Isopropyl acetate, 25° C.), “Crystal form D”; in data set [2] (suspension in Isopropyl acetate, 50° C.), “Crystal form D”. The “Crystal form (XRPD)” value is given as “Crystal form D” in data set [2] (suspension in MA, 25° C.); “Crystal form D” in data set [2] (suspension in MA, 50° C.); “Crystal form D” in data set [2] (suspension in MEK, 25° C.); “Crystal form D” in data set [2] (suspension in MEK, 50° C.); “Crystal form D” in data set [2] (suspension in MIBK, 25° C.); “Crystal form D” in data set [2] (suspension in MIBK, 50° C.). For the same compound, the “Crystal form (XRPD)” value in data set [2] (suspension in MeOH/water (1:1, v/v), 25° C.) is recorded as “Crystal form D”; in data set [2] (suspension in MeOH/water (1:1, v/v), 50° C.), “Crystal form D”; in data set [2] (suspension in Methanol, 25° C.) it was “Crystal form A”; in data set [2] (suspension in Methanol, 50° C.), “Crystal form I”; in data set [2] (suspension in Methyl tert-butyl ether, 25° C.), “Crystal form D”; in data set [2] (suspension in Methyl tert-butyl ether, 50° C.), “Crystal form C”. Moreover, the “Crystal form (XRPD)” value was “Crystal form F” in data set [2] (suspension in Tetrahydrofuran, 25° C.); “No solid sample was obtained” in data set [2] (suspension in Tetrahydrofuran, 50° C.); “Crystal form D” in data set [2] (suspension in Toluene, 25° C.); “No solid sample was obtained” in data set [2] (suspension in Toluene, 50° C.); “Crystal form H” in data set [2] (suspension in Water, 25° C.); “Crystal form J” in data set [2] (suspension in Water, 50° C.). In addition, the “Crystal form (XRPD)” value in data set [2] (suspension in n-Heptane, 25° C.) is given as “Crystal forms C + D”; in data set [2] (suspension in n-Heptane, 50° C.), “Crystal forms C + D”; in data set [2] (suspension in n-Hexane, 25° C.), “Crystal form D”; in data set [2] (suspension in n-Hexane, 50° C.) it was “Crystal form D”.

Regarding `Cc1cc(Nc2ncc(Cl)c(Nc3ccccc3S(=O)(=O)C(C)C)n2)c(OC(C)C)cc1C1=CCN(C2CCOCC2)CC1` [one equivalent of citrate crystal form B], in data set [2] (in solvents), the “stability of crystal form in solvents, citrate polymorph screening test” value is given as “relatively good stability”. Besides, the “crystal form when stirred in solvent” value in data set [2] (methanol, ethanol, acetonitrile, acetone, ethyl acetate, dichloromethane, tetrahydrofuran, n-heptane, dioxane, or mixed solvent of methanol, acetonitrile, or acetone with water, 40° C.) was “remained stable”. Besides, the Total impurities in data set [1] (0 d) came out at 0.18%; in data set [1] (40° C./75% RH, 1 M), 0.19%; in data set [1] (40° C./75% RH, 10 d), 0.19%; in data set [1] (60° C., 1 M), 0.22%; in data set [1] (60° C., 10 d), 0.19%; in data set [1] (90% RH, 1 M), 0.19%. Further, the Total impurities in data set [1] (90% RH, 10 d) is listed as 0.18%; in data set [1] (Illumination, 5 d) it was 0.48%; in data set [1] (Illumination, 10 d), 0.55%. Further, in data set [1] (Illumination, 5 d and 10 d), the Appearance result is recorded as “Color deepening”.

With `Cc1cc(Nc2ncc(Cl)c(Nc3ccccc3S(=O)(=O)C(C)C)n2)c(OC(C)C)cc1C1=CCN(C2CCOCC2)CC1` [one equivalent of tartrate crystal form B], in data set [2] (acetone, tetrahydrofuran, n-heptane, or dioxane), the “stability of crystal form in solvent, suspension method” value is “relatively good stability”. The “crystal form when stirred in solvent” value in data set [2] (acetone, tetrahydrofuran, n-heptane, or dioxane at 40° C.) is on record as “remained stable”.

As for `Cc1cc(Nc2ncc(Cl)c(Nc3ccccc3S(=O)(=O)C(C)C)n2)c(OC(C)C)cc1C1=CCN(C2CCOCC2)CC1` [crystal form C], the “hygroscopic weight gain (DVS curve)” value in data set [3] is on record as 0.31±0.005%.

As for `Cc1cc(Nc2ncc(Cl)c(Nc3ccccc3S(=O)(=O)C(C)C)n2)c(OC(C)C)cc1C1=CCN(C2CCOCC2)CC1` [listing 3 of 3 here], the Total impurities was 0.28% in data set [1] (0 d, listed as Tartrate crystal form C); 0.38% in data set [1] (40° C./75% RH, 1 M, listed as Tartrate crystal form C); 0.37% in data set [1] (40° C./75% RH, 10 d, listed as Tartrate crystal form C); 0.47% in data set [1] (60° C., 1 M, listed as Tartrate crystal form C); 0.41% in data set [1] (60° C., 10 d, listed as Tartrate crystal form C); 0.59% in data set [1] (90% RH, 1 M, listed as Tartrate crystal form C). The Total impurities in data set [1] (90% RH, 10 d, listed as Tartrate crystal form C) is on record as 0.48%; in data set [1] (Illumination, 5 d, listed as Tartrate crystal form C), 1.01%; in data set [1] (Illumination, 10 d, listed as Tartrate crystal form C), 1.04%. For the same compound, the Appearance result in data set [1] (Illumination, 5 d and 10 d) is “Color deepening”.
